The source of these data is patent publication US20140179607A9 (IRONWOOD PHARMACEUTICALS, INC, priority 2009, published 2014).

Series [1] is described as follows: In vitro metabolism in mouse jejunum loop fluid. Format: in vitro ADME. Particulars: for metabolism in mouse jejunum fluid (words) / remaining at 2 h, 100 μg/mL: 37° C.; for metabolism in mouse jejunum fluid (words): up to 120 minutes; for remaining at 2 h, 100 μg/mL: mouse jejunum loop fluid, pH 8, mouse jejunal loop fluid, after 120 minutes, read-out: percent remaining. As to the method:
The purpose of this study was to determine the stability of phosphorylated peptides in mouse jejunal loop fluid. […] The isotopically labeled peptide 2 was synthesized with ^13C, ^15N-labeled alanine and leucine (i.e., with a sequence CCpS[^13C6, ^15N]LCCNP[^13C6, ^15N]ACTGC).
Each peptide was synthesized by American Peptide Company, Inc., and was stored desiccated at −20° C. A 1 mg/mL solution for each of the non-labeled peptides was prepared in 1 M tris (hydroxymethyl) aminomethane hydrochloride (Tris-HCl), pH 8 just prior to conducting the mouse intestinal loop fluid assay. A 500 ng/mL solution of ^13C, ^15N-labeled peptide 2 was prepared in 0.1% formic acid in water and was utilized to dilute the jejunum samples for post-assay LC-MS/MS analysis.
To collect the fluid, mice were fasted overnight with full access to water. They were then anesthetized with isofluorane for surgery and subjected to laparotomy in which the small intestine was exteriorized. Jejunum loops of 3 to 4 cm in length were made with sutures starting at 7 cm from the pyloric sphincter of the stomach. Once the loops were formed, they were injected with 200 μL of phosphate buffered saline (PBS) buffer (10 mM, pH 7.4). The abdominal wall and skin of the animals were then sutured, and the animals were allowed to recover for 30 minutes. Following recovery, the animals were sacrificed, the loops were then excised and the fluid inside was recovered and stored at −80° C. until use.
For each peptide, 25 μL of the 1 mg/mL peptide stock solution was added to 25 μL of 1 M Tris-HCl and 25 μL of 10× calf intestinal phosphatase (CIP) buffer containing 500 mM Tris-HCl, 1 M sodium chloride (NaCl), 0.1 mM magnesium chloride (MgCl2), pH 8. The reactions were initiated by adding 175 μL of the mouse jejunum loop fluid or 175 μL of the 1 M Tris-HCl pH8 buffer for the control reactions. The final concentration of each peptide was 100 μg/mL. The reactions were continuously mixed and maintained at 37° C. on a plate shaker. At 0, 2, 5, 10, 20, 30, 60, 90 and 120 minutes after adding the mouse intestinal loop fluid, a 25 μL aliquot was taken and added to 25 μL of 4° C. 12% trichloroacetic acid to stop the reaction. An additional 200 μL of 0.1% formic acid in water was added to these reactions for dilution purposes. These samples were then further diluted by taking 20 μL of each sample and adding it to 480 μL of 0.1% formic acid in water containing 500 ng/mL of the internal standard 13C, 15N -labeled peptide 2.
All samples were analyzed using an Applied Biosystems/MDS SCIEX API 4000 triple quadrupole mass spectrometer equipped with a high-performance liquid chromatography (HPLC) system. The mass spectrometer was operated in multiple reaction monitoring (MRM) mode, with resolution set to 1.2 Da.
The LC-MS/MS data were processed using Analyst version 1.4.2 software (Applied Biosystems/MDS SCIEX). The peak area ratio (ratio of analyte peak area to internal standard peak area) was used to calculate the percent remaining of each peptide.

In series [2] the target is T1, Calf intestinal alkaline phosphatase (CIP) (Bos taurus, UniProt P19111).
T1 construct: purchased New England BioLabs, Ipswich, Mass; M0290S
The experiment in a line: Alkaline phosphatase reaction (dephosphorylation of peptide substrates, LCMS). The series is classed as in vitro ADME. As to the method: (§1) For the alkaline phosphatase reactions, peptide stocks were prepared at 1 mg/mL in 0.1 M Tris-HCl pH 8, which were stored at −20° C. until assays were conducted. For the acid phosphatase reactions, peptide stocks were prepared at 1 mg/mL in 50 mM sodium phosphate pH 6, which was stored at −20° C. until assays were conducted.
Calf intestinal alkaline phosphatase (CIP) was obtained from New England BioLabs, Ipswich, Mass. Cat # M0290S. The CIP reaction solution was prepared by dilution with buffer (50 mM KCl, 10 mM Tris-HCl pH 8, 1 mM MgCl2, 50% glycerol) to 0.5 units/μL. The alkaline phosphatase reaction solutions were assembled in 20 μL quantities containing: • 2 μL 10× CIP buffer (1M NaCl, 500 mM Tris-HCl pH 8, 100 mM MgCl2) • 2 μL peptide stock (1 mg/mL) • 12 μL H2O • 4 μL alkaline phosphatase (0, 0.5 or 2 units)
The reaction solutions were mixed gently and incubated for 90 minutes at 37° C. These reaction solutions were stored at −20° C. until analysis. For analysis, the reaction solutions were diluted from 7.5 μL of CIP treated peptide to 50 μL with 0.1% formic acid in water to a final concentration of 10 μM.
Control reactions were assembled for enzyme activity containing 10 mM p-nitrophenylphosphate in place of peptide. After incubation, the reactions were diluted with 0.1 mL of 100 mM borate buffer pH 9 and read at the absorbance of 405 nm to monitor p-nitrophenol appearance.

The target of series [3] is T2, human prostate acid phosphatase (HuPrAP) (Homo sapiens, UniProt P15309).
T2 construct: purchased MP Biochemicals, Solon, Ohio 153872
T2 sequence (P15309 33-386): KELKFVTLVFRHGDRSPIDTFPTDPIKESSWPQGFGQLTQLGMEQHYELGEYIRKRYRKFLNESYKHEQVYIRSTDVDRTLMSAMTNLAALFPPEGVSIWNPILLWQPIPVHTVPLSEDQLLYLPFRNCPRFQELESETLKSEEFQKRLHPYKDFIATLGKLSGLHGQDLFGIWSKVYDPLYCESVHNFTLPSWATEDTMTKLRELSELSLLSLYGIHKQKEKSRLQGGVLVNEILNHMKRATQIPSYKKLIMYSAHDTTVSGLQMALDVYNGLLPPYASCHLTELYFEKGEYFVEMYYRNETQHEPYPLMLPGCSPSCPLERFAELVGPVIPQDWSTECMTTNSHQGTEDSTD
As to the kind of experiment: Acid phosphatase reaction, human prostate acid phosphatase. Particulars: Human prostatic acid phosphatase pH 5, 90 minutes at 37° C. Format: in vitro ADME. The method, then: as §1
(§2) Potato acid phosphatase (PoAP) was obtained from Sigma, St. Louis, Miss. Cat #P1146 and human prostate acid phosphatase (HuPrAP) was obtained from MP Biochemicals, Solon, Ohio. Cat # 153872. The acid phosphatases were dissolved to provide a solution containing 0.5 units AP/μL using 50 mM sodium acetate pH 5, 0.2 mM MgCl2. The acid phosphatase reactions were assembled in 20 μL quantities containing: • 2 μL 10× acid phosphatase buffer (500 mM sodium acetate pH 5, 2 mM MgCl2) • 2 μL peptide stock (1 mg/mL) • 12 μL H2O • 4 μL acid phosphatase (0.5 or 2 units)
(§3) The reaction solutions were mixed gently and incubated for 90 minutes at 37° C. The reaction solutions were stored at −20° C. for later analysis. For analysis, 7.5 μL acid phosphatase reactions were diluted to 50 μL with 0.1% formic acid in water to a final concentration of 10 μM. The control reactions for enzyme activity were assembled and diluted to 10 mM p-nitrophenylphosphate in place of peptide. After incubation, the reactions were diluted with 0.1 mL of 100 mM borate buffer pH 9 and read at the absorbance of 405 nm to monitor p-nitrophenol appearance.

The conditions of series [4]: oral administration at therapeutic dose levels; cited from earlier work.
Series [5] deals with Potato acid phosphatase (PoAP). The experiment in a line: Acid phosphatase reaction, potato acid phosphatase. Format: in vitro ADME. The following applies: Potato acid phosphatase pH 5, 90 minutes at 37° C. As to the method: as §1, §2, §3
The test system of series [6] is Calf intestinal alkaline phosphatase (CIP). The experiment in a line: Calf intestinal alkaline phosphatase (CIP) in CIP buffer (NaCl, Tris-HCl pH 8, MgCl2). The following applies: 37° C., up to 90 minutes.
Series [7] in a line: mouse jejunum loop fluid (loops injected with 200 μL PBS, fluid recovered after 30 minutes). The following applies: 37° C., up to 120 minutes.
The subject of series [8] is human prostate acid phosphatase (HuPrAP). The experiment in a line: human prostate acid phosphatase (HuPrAP) in sodium acetate pH 5, MgCl2. Particulars: 37° C., up to 90 minutes.
For series [9], the system named is Potato acid phosphatase (PoAP). The experiment in a line: Potato acid phosphatase (PoAP) in sodium acetate pH 5, MgCl2. Particulars: 37° C., up to 90 minutes.
[10] abbreviates: Alkaline phosphatase pH 8, 90 minutes at 37° C.

Positions of bridges follow the written chain, without caps; N, C: chain ends. Non-standard residues stand in square brackets, D forms with d. Residues, ends and D or L forms follow the SMILES beside them. pS = N[C@@H](COP(=O)(O)O)C(=O)O

T1 sequence (P19111 20-506): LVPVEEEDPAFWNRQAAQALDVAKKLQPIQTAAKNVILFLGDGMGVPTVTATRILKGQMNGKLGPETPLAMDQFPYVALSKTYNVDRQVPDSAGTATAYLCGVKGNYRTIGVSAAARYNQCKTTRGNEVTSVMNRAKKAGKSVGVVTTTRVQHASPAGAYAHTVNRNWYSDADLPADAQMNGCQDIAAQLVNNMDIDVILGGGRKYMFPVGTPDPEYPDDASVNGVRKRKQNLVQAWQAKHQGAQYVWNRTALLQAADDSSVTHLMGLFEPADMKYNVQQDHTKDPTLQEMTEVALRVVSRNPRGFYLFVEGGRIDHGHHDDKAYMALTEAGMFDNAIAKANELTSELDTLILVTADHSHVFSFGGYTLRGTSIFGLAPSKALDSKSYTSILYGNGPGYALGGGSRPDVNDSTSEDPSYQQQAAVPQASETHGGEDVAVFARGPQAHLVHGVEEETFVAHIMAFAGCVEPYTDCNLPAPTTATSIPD

With `CC(C)C[C@@H]1NC(=O)[C@H](CO)NC(=O)[C@@H]2CSSC[C@@H]3NC(=O)[C@H](C)NC(=O)[C@@H]4CCCN4C(=O)[C@H](CC(N)=O)NC(=O)[C@H](CSSC[C@H](N)C(=O)N2)NC(=O)[C@H](CSSC[C@@H](C(=O)O)NC(=O)CNC(=O)[C@H]([C@@H](C)O)NC3=O)NC1=O` [Dephospho-Peptide 2, CCSLCCNPACTGC] (H-CCSLCCNPACTGC-OH; disulfide 1-6, 2-10, 5-13 (inferred); N-terminus and C-terminus assumed), in [1], the “metabolism in mouse jejunum fluid (words)” value is reported as “degraded faster in mouse intestinal fluid than peptide 2” and the share remaining (as a rule, the share of the starting amount still present when the sample was taken) at 2 h, 100 μg/mL was found to be 5.6%.

Regarding `CC(C)C[C@@H]1NC(=O)[C@H](COP(=O)(O)O)NC(=O)[C@@H]2CSSC[C@@H]3NC(=O)[C@H](C)NC(=O)[C@@H]4CCCN4C(=O)[C@H](CC(N)=O)NC(=O)[C@H](CSSC[C@H](N)C(=O)N2)NC(=O)[C@H](CSSC[C@@H](C(=O)O)NC(=O)CNC(=O)[C@H]([C@@H](C)O)NC3=O)NC1=O` [Peptide 2, CCpSLCCNPACTGC] (H-CC[pS]LCCNPACTGC-OH; disulfide 1-6, 2-10, 5-13 (inferred); N-terminus and C-terminus assumed), in series [1] (mouse jejunum loop fluid at 37° C.), the “formation of metabolite dephospho-peptide 2” value is recorded as “Formation of dephospho-peptide 2 was observed”. In addition, the fraction remaining at 2 h, 100 μg/mL in series [1] came to 5.3%. Further, the results for the “Dephospho (%)” value in series [2] (setting [10]) and in series [3] were 100% and 4.1%, respectively. In addition, the share remaining at 1.5 h, 0.1 mg/mL in series [2] (calf, calf intestinal alkaline phosphatase (CIP), Alkaline phosphatase pH 8, 90 minutes at 37° C.) turned out to be 0%; in series [3] (human prostate acid phosphatase (HuPrAP)), 95.9%.

For `CC(C)C[C@@H]1NC(=O)[C@H](CCC(=O)O)NC(=O)[C@@H]2CSSC[C@@H]3NC(=O)[C@H](C)NC(=O)[C@@H]4CCCN4C(=O)[C@H](CC(N)=O)NC(=O)[C@H](CSSC[C@H](N)C(=O)N2)NC(=O)[C@H](CSSC[C@@H](C(=O)N[C@@H](Cc2ccc(O)cc2)C(=O)O)NC(=O)CNC(=O)[C@H]([C@@H](C)O)NC3=O)NC1=O` [Peptide 3, CCELCCNPACTGCY] (H-CCELCCNPACTGCY-OH; disulfide 1-6, 2-10, 5-13 (inferred); N-terminus and C-terminus assumed), the figures for the “metabolism in mouse jejunum fluid (words)” value in series [1] and in [1] (listed as peptide 3) were “not detected after 90 minutes” and “degraded faster in mouse intestinal fluid than peptide 2”, respectively. Besides, in series [2] (with and without calf intestinal alkaline phosphatase, data not shown), the “Effect of CIP treatment on peptide (LC-MS)” value is “not affected by CIP treatment”.

On to `C[C@@H]1NC(=O)[C@@H]2CCCN2C(=O)[C@H](CC(N)=O)NC(=O)[C@@H]2CSSC[C@H](N)C(=O)N[C@H]3CSSC[C@H](NC1=O)C(=O)N[C@@H]([C@@H](C)O)C(=O)NCC(=O)N[C@H](C(=O)N[C@@H](Cc1ccc(O)cc1)C(=O)O)CSSC[C@H](NC(=O)[C@H](Cc1ccc(O)cc1)NC(=O)[C@H](CCC(=O)O)NC3=O)C(=O)N2` [linaclotide] (H-CCEYCCNPACTGCY-OH; disulfide 1-6, 2-10, 5-13), for which the “levels seen systemically after oral administration” value in series [4] was “no detectable levels”.

As for `O=[N+]([O-])c1ccc(OP(=O)(O)O)cc1` [p-nitrophenylphosphate, reference compound], the “Dephospho (%)” value in [2] (setting [10]), in [3] and in series [5] was 100% throughout. For the same molecule, the “Remaining (%)” value in series [2] (setting [10]), in series [3] and in series [5] was 0% each time.

As for CCELCCNPACTGCY, the not cleaved entry in [6] is “not affected by CIP treatment”.

CCpSLCCNPACTGC: the fragment found result in series [7] is given as “dephospho-peptide 2”; in series [8] it was “Dephospho-Peptide 2”; in series [6], “Dephospho-Peptide 2”.

Consider CCpSLCCNPACTGCY, for which the fragment found result in series [8], in [9] and in [6] was “Dephospho-Peptide 1” each time.
